The values that follow come from ChEMBL document CHEMBL4368885, “Quinolone-isoniazid hybrids: synthesis and preliminary in vitro cytotoxicity and anti-tuberculosis evaluation” (Medchemcomm, 2019).

Series [1] concerns Mycobacterium tuberculosis. The experiment in a line: microbe, parasite or virus in culture. The conditions noted are these: H37Rv.
Description: Antitubercular activity against Mycobacterium tuberculosis H37Rv after 7 to 14 days by broth micro dilution method
The nature of series [2]: Cytotoxicity against human HeLa cells assessed as cell viability at 20 uM after 24 hrs by resazurin dye-based fluorescence assay relative to control. The conditions noted are these: read-out: Activity.
A short description of series [3]: Aqueous solubility in pH 6.5 PBS at 10 to 220 uM after 20 hrs by nephelometric analysis. The series is classed as physicochemical.
Series [4] is described as follows: Metabolic stability in pooled human liver microsomes assessed as percentage of compound remaining at 1 uM by LC-MS/MS analysis. It is filed as ADME, Microsome. The conditions noted are these: read-out: Stability.
The nature of series [5]: Metabolic stability in rat liver microsomes assessed as percentage of compound remaining at 1 uM by LC-MS/MS analysis. The series is classed as ADME, Microsome. Particulars: read-out: Stability.
Series [6] can be described thus: Metabolic stability in mouse liver microsomes assessed as percentage of compound remaining at 1 uM by LC-MS/MS analysis. It is filed as ADME, Microsome. The conditions noted are these: read-out: Stability.
Series [7] is described as follows: Intrinsic clearance in pooled human liver microsomes assessed per mg protein at 1 uM by LC-MS/MS analysis. The series is classed as ADME, Microsome.
Series [8] in a line: Intrinsic clearance in rat liver microsomes assessed per mg protein at 1 uM by LC-MS/MS analysis. It is filed as ADME, Microsome.
Series [9] in a line: Intrinsic clearance in mouse liver microsomes assessed per mg protein at 1 uM by LC-MS/MS analysis. It is filed as ADME, Microsome.
Series [10] can be described thus: Half life in pooled human liver microsomes at 1 uM by LC-MS/MS analysis. It is filed as ADME, Microsome.
Series [11] in a line: Half life in rat liver microsomes at 1 uM by LC-MS/MS analysis. It is filed as ADME, Microsome.
Series [12] in a line: Half life in mouse liver microsomes at 1 uM by LC-MS/MS analysis. It is filed as ADME, Microsome.
A short description of series [13]: Hepatic extraction ratio in pooled human liver microsomes at 1 uM by LC-MS/MS analysis. It is filed as ADME, Microsome. The conditions noted are these: read-out: ERH.
Series [14] is described as follows: Hepatic extraction ratio in rat liver microsomes at 1 uM by LC-MS/MS analysis. The series is classed as ADME, Microsome. The conditions noted are these: read-out: ERH.
A short description of series [15]: Hepatic extraction ratio in mouse liver microsomes at 1 uM by LC-MS/MS analysis. The series is classed as ADME, Microsome. Particulars: read-out: ERH.
A further series has as its system HeLa. The experiment in a line: Cytotoxicity against human HeLa cells assessed as reduction in cell viability after 24 hrs by resazurin dye-based fluorescence assay.

Structures are written as SMILES. ≈ marks a conversion by molar mass, not a printed value. A value given as a limit tells only on which side of the number the result lay.

In series [1], `CO[C@H]1/C=C/O[C@@]2(C)Oc3c(C)c(O)c4c(O)c(c(/C=N/N5CCN(C)CC5)c(O)c4c3C2=O)NC(=O)/C(C)=C\C=C\[C@H](C)[C@H](O)[C@@H](C)[C@@H](O)[C@@H](C)[C@H](OC(C)=O)[C@@H]1C` [RIFAMPIN] gave an MIC90 of 0.06 µM (≈ 0.0494 µg/mL).
Turning to `C/C(=N\NC(=O)c1ccncc1)c1ccc2c(c1)c(=O)c(C(=O)NCCNCCO)cn2Cc1ccccc1`, the viability at 24 h, 20 µM in series [2] was < 75%. In series [1], this compound displayed an MIC90 of 2 µM (≈ 1.05 µg/mL).
For `CCn1cc(C(=O)NCCOC)c(=O)c2cc(/C(C)=N/NC(=O)c3ccncc3)ccc21`, the viability at 24 h, 20 µM in series [2] is < 75%. Besides, in series [3], the solubility (kinetic) at 20 h worked out at 95 µM (≈ 41.4 µg/mL). The values for the remaining at 1 µM in [4], in series [5] and in series [6] were 90.6%, 87% and 77%, respectively. Moreover, the CLH in [7] turned out to be 13.3 µg/min; in [8], 18.7 µg/min; in series [9], 35.3 µg/min. Also, the half-life at 1 µM was > 2.5 h in series [10], > 2.5 h in [11] and 1.33 h in series [12]. Further, the hepatic extraction ratio at 1 µM is < 0.42 in series [13], < 0.3 in series [14] and < 0.49 in series [15]. The compound further registered an MIC90 in [1] of 0.8 µM (≈ 0.348 µg/mL).
`CCOC(=O)c1cn(CC)c2ccc(/C(C)=N/NC(=O)c3ccncc3)cc2c1=O`: the viability at 24 h, 20 µM in [2] was < 75%. In series [1], this compound showed an MIC90 of 0.2 µM (≈ 0.0813 µg/mL).
The like results for `CCOC(=O)c1cn(C)c2ccc(/C(C)=N/NC(=O)c3ccncc3)cc2c1=O` were, in that order, < 75% and 0.9 µM (≈ 0.353 µg/mL).
The like results for `COCCNC(=O)c1cn(Cc2ccc(Cl)cc2Cl)c2ccc(/C(C)=N/NC(=O)c3ccncc3)cc2c1=O` were, in that order, < 75% and 4.8 µM (≈ 2.72 µg/mL).
With `CC(=O)c1ccc2c(c1)c(=O)c(C(=O)NCCNCCO)cn2Cc1ccc(Cl)cc1Cl`, in series [2], the viability at 24 h, 20 µM is < 75%. In series [1], this compound displayed an MIC90 of 125 µM (≈ 59.5 µg/mL).
The like results for `COCCNC(=O)c1cn(Cc2ccccc2)c2ccc(C(C)=O)cc2c1=O` were, in that order, < 75% and 43.4 µM (≈ 16.4 µg/mL).
As for `CC[C@H]1CN2CCc3cc(OC)c(OC)cc3[C@@H]2C[C@@H]1C[C@H]1NCCc2cc(OC)c(OC)cc21` [EMETINE], the IC50 with HeLa turned out to be 0.015 µM.
In the case of `C/C(=N\NC(=O)c1ccncc1)c1ccc2c(c1)c(=O)c(C(=O)NCCOCCO)cn2Cc1ccc(Br)cc1`, the viability at 24 h, 20 µM in series [2] is < 75%. In addition, in series [1], the MIC90 stood at 2.7 µM (≈ 1.64 µg/mL).
In series [1], `NNC(=O)c1ccncc1` [ISONIAZID] had an MIC90 of 0.2 µM (≈ 0.0274 µg/mL).
Consider `C/C(=N\NC(=O)c1ccncc1)c1ccc2c(c1)c(=O)c(C(=O)NCCNCCO)cn2Cc1ccc(C(F)(F)F)cc1`, for which, in [2], the viability at 24 h, 20 µM was < 75%. The MIC90 in [1] came to 1.8 µM (≈ 1.07 µg/mL).
Take `CCn1cc(C(=O)NCCCn2ccnc2)c(=O)c2cc(/C(C)=N/NC(=O)c3ccncc3)ccc21`: the viability at 24 h, 20 µM in series [2] is < 75%. For the same compound, the MIC90 in series [1] worked out at 7.8 µM (≈ 3.79 µg/mL).
For `C/C(=N\NC(=O)c1ccncc1)c1ccc2c(c1)c(=O)c(C(=O)NCCNCCO)cn2Cc1ccc(Br)cc1` the same measures were < 75% and 0.8 µM (≈ 0.484 µg/mL).
